Legend:
[1] = test system: D. citri; assay: Liquid ACP diet sandwich feeding assay (MFC): inhibition of de novo stylet sheath formation; type: in vivo, Diaphorina citri; conditions: about 24 h; cellulase approx 1 unit/μl; BAPN 100 mM; EDTA approx 2 mM; proteases per Table 5
Method: The next step was to determine if addition of cellulase to the diet of D. citri would interfere with stylet sheath formation. A D. citri diet is prepared as described by Hall, David et al., “Research toward an artificial diet for adult Asian citrus psyllid,” Annals of the Entomological Society of America 103.4:611-617 (2010). Approximately 25 D. citri were collected into polystyrene Cellstar 35 mm×10 mm dishes (Griener Bio-One, Monroe, N.C.) that were then sealed using a single layer of Parafilm® M (Pechiney Plastic Packaging Company, Chicago, Ill.). Approximately 99 μl of liquid ACP diet (e.g., diet lacking the solidifying agar component, see Hall, et. al., 2010, supra) was mixed with approximately 1 μl of cellulase (Sigma Aldrich, St. Louis, Mo.) and mixed. […] layer Parafilm® M surface, which was then covered with another layer of Parafilm® M to form a sandwich (e.g., Parafilm® M—liquid ACP diet with cellulase—Parafilm® M) to allow ACP to feed into the liquid ACP diet containing cellulase. This MFC was then incubated at about 25° C., at about 75% relative humidity, with a light:dark cycle of approximately 14:10 hours for a period of about 24 hours. After about 24 hours, the stylet sheaths were observed using an inverted microscope. FIGS. 3G through 3I are images of three separate locations where D. citri made attempts to feed into the liquid ACP diet containing approximately 1 unit/μl cellulase.
Because many biomolecule polymerizing enzymes require divalent cations as cofactors, the effect of ethylenediaminetetraacetic acid (EDTA), a chelator of divalent cations, on ACP SS formation was tested by adding EDTA to the previously described liquid ACP diet (see Hall et al., 2010, supra). The EDTA was added to the liquid ACP diet at a concentration of approximately 2 mM EDTA in diH2O. Approximately 200 D. citri were placed in plastic Petri dishes. The dishes were covered with a single layer of Parafilm® M to form MFC. […] The MFC plates were incubated at a temperature of about 25° C., a relative humidity of about 75%, and a light/dark cycle of about 14:10 hours duration. Following the 24-hour incubation, the fluid (either liquid ACP diet containing EDTA or just the liquid ACP diet) between the two sheets of plastic was harvested by using a sterile 5 ml syringe and 20-gauge needle which was pushed into the center of the Parafilm® M-fluid-Parafilm® M sandwich, and the fluid was then removed by syringe plunger suction. The harvested fluids were put into sterile 50 ml conical vials, placed at about −80° C. until frozen. Each vial of harvested fluid was then lypholyzed overnight. The lyophilized product was then solubilized in […], placed at about −80° C. until frozen, then each new vial was lyopholyzed overnight. The lyophilized product was then solubilized in approximately 15 μL of approximately 1× Laemmili buffer (Bio-Rad, Hercules, Calif.) containing approximately 5% 2-mercaptoethanol. The sample was loaded onto a sodium dodecyl sulfate polyacrylamide gel (SDS-PAGE) and underwent electrophoresis. The SDS PAGE gel was then stained with coomassie. Uncommon bands between the liquid ACP diet containing EDTA and liquid ACP diet without EDTA (negative control) lanes were cut out and analyzed by Orbitrap (Thermo Scientific, Waltham, Mass.) protein analysis, according to manufacturer's protocol.
After about 24-hour incubation, D. citri feeding sites were observed. […] See also Table 2 and Table 3, infra.

[2] = test system: D. citri stylet sheaths (ACP SSs); assay: Degradation of preformed, solidified stylet sheaths by enzymes (MFC membrane or slide incubation); set-up: species or system Diaphorina citri; key to Sheath Degradation: −: No effect apparent; +/−: inconclusive; +: apparent slight effect; ++: increased apparent effect; +++: high effect; ++++: very high effect; +++++: complete degradation of sheaths or inhibition of sheath synthesis; conditions: D. citri preformed sheaths; enzyme concentration, pH and temperature per Table 4 (cellulase 1:25, pH 6.0, 60° C.)
Method: In order to test cellulase's effect on preformed ACP SSs, formed, solidified stylet sheaths were harvested directly from the surface of an MFC membrane (in these experiments either plastic wrap or parafilm was used) as described herein and in Morgan et al. 2013, supra. Approximately 100 psyllids were placed into an MFC for about 24 hours. The MFCs consisted of D. citri caged individually and/or in groups within 100 mm×15 mm plastic Petri dishes. A single kitchen plastic wrap layer was stretched across the top of each Petri dish to seal the Petri dish from insect escape and to provide a stylet penetrable surface for insect probing.
Several MFCs (the Petri dishes covered with kitchen plastic wrap or parafilm and containing D. citri) were placed into clear Pyrex® baking dishes with the membrane (kitchen plastic wrap or parafilm) side up, and the Pyrex® baking dish is covered with a single layer of clear kitchen plastic wrap to prevent external contaminant interactions with the membrane surface during incubation. MFCs were incubated at a temperature of about 25° C., relative humidity of about 75%, and a light:dark cycle of about […]. […]

[3] = test system: D. citri; assay: Liquid ACP diet sandwich feeding assay (MFC): inhibition of de novo stylet sheath formation; type: in vivo, Diaphorina citri; set-up: key: −: No effect apparent; +/−: inconclusive; +: apparent slight effect; ++: increased apparent effect; +++: high effect; ++++: very high effect; +++++: complete degradation of sheaths or inhibition of sheath synthesis; conditions: enzyme in liquid ACP diet, about 24 h, 25° C., enzyme amounts and pH per Table 5 (cellulase approx 1 unit/μl)
Method: The next step was to determine if addition of cellulase to the diet of D. citri would interfere with stylet sheath formation. A D. citri diet is prepared as described by Hall, David et al., “Research toward an artificial diet for adult Asian citrus psyllid,” Annals of the Entomological Society of America 103.4:611-617 (2010). Approximately 25 D. citri were collected into polystyrene Cellstar 35 mm×10 mm dishes (Griener Bio-One, Monroe, N.C.) that were then sealed using a single layer of Parafilm® M (Pechiney Plastic Packaging Company, Chicago, Ill.). Approximately 99 μl of liquid ACP diet (e.g., diet lacking the solidifying agar component, see Hall, et. al., 2010, supra) was mixed with approximately 1 μl of cellulase (Sigma Aldrich, St. Louis, Mo.) and mixed. […]
Because many biomolecule polymerizing enzymes require divalent cations as cofactors, the effect of ethylenediaminetetraacetic acid (EDTA), a chelator of divalent cations, on ACP SS formation was tested by adding EDTA to the previously described liquid ACP diet (see Hall et al., 2010, supra). […] Uncommon bands between the liquid ACP diet containing EDTA and liquid ACP diet without EDTA (negative control) lanes were cut out and analyzed by Orbitrap (Thermo Scientific, Waltham, Mass.) protein analysis, according to manufacturer's protocol. […]

Chymopapain from papaya latex: Cysteine peptidase; Sigma #C8526
Effect on D. citri stylet sheath formation in liquid ACP diet [1]: capable of inhibiting the formation of ACP SSs | Sheath Degradation [2]: +++++ | Inhibition of Sheath Formation [3]: +++++
